Data from the NIST ThermoML archive (doi:10.1016/j.jct.2012.08.010).

Test: refractive index (Na D-line) (dimensionless); φn = volume fraction of the nth substance listed
Conditions: 101 kPa, Liquid, Standard Abbe refractometry

C=C[Si]1(C)O[Si](C)(C=C)O[Si](C)(C=C)O[Si](C)(C=C)O1 (stereo not given) [2,4,6,8-tetramethyl-2,4,6,8-tetravinylcycloterasiloxane] + CCc1ccccc1
refractive index
Conditions	288.15 K	298.15 K	308.15 K	318.15 K	328.15 K
φ1 = 0.1306	1.49051	–	–	–	–
φ1 = 0.1307	–	1.48523	1.47983	1.47444	1.46899
φ1 = 0.2495	1.48332	1.47811	–	–	–
φ1 = 0.2496	–	–	1.47276	1.46745	1.46201
φ1 = 0.3353	1.47811	1.47292	–	–	–
φ1 = 0.3354	–	–	1.46765	1.46234	1.45699
φ1 = 0.4168	1.47313	1.46801	1.46276	–	–
φ1 = 0.4169	–	–	–	1.45752	1.45223
φ1 = 0.4874	1.46879	–	–	–	–
φ1 = 0.4875	–	1.4637	1.45851	1.45331	1.44807
φ1 = 0.5524	1.46478	–	–	–	–
φ1 = 0.5525	–	1.45974	1.4546	1.44944	1.44422
φ1 = 0.5993	1.46188	–	–	–	–
φ1 = 0.5994	–	1.45688	1.4518	1.4467	1.44159
φ1 = 0.6539	1.45851	–	–	–	–
φ1 = 0.654	–	1.45353	1.44849	1.44344	1.43836
φ1 = 0.699	1.4557	1.45075	–	–	–
φ1 = 0.6991	–	–	1.44574	1.44073	1.43564
φ1 = 0.7394	1.4532	1.44826	–	–	–
φ1 = 0.7395	–	–	1.44331	1.43832	1.4333
φ1 = 0.7767	1.45085	1.44594	1.44103	–	–
φ1 = 0.7768	–	–	–	1.43607	1.43112
φ1 = 0.809	1.44885	1.44397	1.43906	–	–
φ1 = 0.8091	–	–	–	1.43412	1.4292
φ1 = 0.8409	1.44681	1.44197	–	–	–
φ1 = 0.841	–	–	1.43711	1.43222	1.42729
φ1 = 0.8663	1.44522	1.44039	1.43554	1.43067	1.42578
φ1 = 0.8945	1.44344	1.43862	–	–	–
φ1 = 0.8946	–	–	1.43382	1.42898	1.42413
φ1 = 0.9191	1.44188	1.43709	1.4323	1.42747	1.42266
φ1 = 0.9412	1.44049	1.4357	1.43092	1.42613	1.42133
φ1 = 0.9806	1.43796	1.43323	1.42848	1.42373	1.41899
φ1 = 1	1.43674	1.43202	1.4273	1.42257	1.41785
